Laboratory results published in PMC3252867, “Marilones A–C, phthalides from the sponge-derived fungus Stachylidium sp” (Beilstein Journal of Organic Chemistry, 2011).
Read-outs that look alike come from different tables or passages of the source. Each block holds one compound with its values, some of them ahead of it.

What was measured:
Assay in all cases: cells
Set-up in all cases: antiproliferative activity in human cancer cell lines, growth inhibition corrected for starting population (GI50)
Settings in all cases: Homo sapiens
MCF7 = test system: MCF7
NCI-H460 = test system: NCI-H460
SF268 = test system: SF268

- GI50 (MCF7; MCF7, read-out: GI50 (1)): 28.8 µM
- GI50 (NCI-H460; NCI-H460, read-out: GI50 (1)): 42.9 µM
Compound: COc1c(C)c(OC/C=C(\C)CCC=C(C)C)cc2c1C(=O)O[C@H]2C (racemic) [compound 1, Marilone A]
- GI50 (SF268; SF-268, read-out: GI50 (1)): 38.4 µM

- GI50 (MCF7; MCF7, read-out: GI50 Etoposide): 22.8 µM
- GI50 (NCI-H460; NCI-H460, read-out: GI50 Etoposide): 0.4 µM
Compound: COc1cc([C@@H]2c3cc4c(cc3[C@@H](O[C@@H]3O[C@@H]5CO[C@@H](C)O[C@H]5[C@H](O)[C@H]3O)[C@H]3COC(=O)[C@H]23)OCO4)cc(OC)c1O [Etoposide]
- GI50 (SF268; SF-268, read-out: GI50 Etoposide): 7.7 µM

- GI50 (MCF7; MCF7, read-out: GI50 (3)): 20 µM
- GI50 (NCI-H460; NCI-H460, read-out: GI50 (3)): 31 µM
Compound: COc1c(C)c(OC/C=C(\C)CCC=C(C)C)cc2c1COC2=O [compound 3, Marilone C]
- GI50 (SF268; SF-268, read-out: GI50 (3)): 28.9 µM
